Test results from US10067142B2, “Method for diagnosing, treating, or preventing mood disorder” (priority 2014, dated 2018).
Like-named read-outs stand apart in the source and are kept apart here.

Key:
Bcl-2 = conditions: Literatures 13 through 16, cited from earlier work
HHV-6 HST strain = assay: SITH-1 expression in HHV-6-infected U373 cells pre-reacted with heparin or anti-heparan sulfate peptide; assay type: cell-based; conditions: cells reacted with 10 unit/mL Novo-Heparin at 4° C. for 1 hour before infection; MOI 3; 48 hours
Experimental: U373 astrocytoma cells were removed with use of trypsin-EDTA, and then a medium (10% FBS-containing DMEM) was added, so that the resultant cells were at 1×10^5 cell/mL. Then, the U373 cells were reacted with 10 unit/mL of Novo-Heparin (Mochida Pharmaceutical Co., Ltd.) or 0.1 mM of anti-3-OS Heparan sulfate (HS) peptide trifluoroacetate salt (Sigma-Aldrich) at 4° C. for 1 hour. The U373 cells were also reacted only with a medium as a control at 4° C. for 1 hour. The resultant cells were washed 3 times with a medium. Then, the U373 cells thus washed were infected with a HHV-6 HST strain virus fluid (2.9×10^6 ffu/ml) at a MOI of 3 by centrifugation. Then, the infected cells were cultured at 37° C. for 48 hours in a CO2 incubator.
From the resultant infected cells, RNA was purified by use of RNeasy Mini Kit (Qiagen) in accordance with the standard protocol. Then, cDNA was synthesized by use of a PrimeScript RT Reagent Kit (Takara Bio). Finally, expression levels of SITH-1 and GAPDH mRNA were measured by a method similar to that used in the above (3.1).

[1] = tested on: SITH-1/Adv nasal administration mice; assay: Tail suspension test of SSRI-treated SITH-1/Adv nasal administration mice; assay type: in vivo; conditions: 80 mg/L Fluoxetine solution as drinking water from 2 weeks before nasal SITH-1/Adv; test 7 days after nasal administration, 10 minutes
Experimental: 8-week-old C57BL/6NCrSlc mice were raised at a room temperature of 24±1° C. and with lights on for 12 hours and off for 12 hours. After each of the mice was anesthetized with use of isoflurane, SITH-1/Adv or empty/Adv in an amount equivalent to 2.5×10^7 ifu was dropped onto the nasal cavity, and was then sucked along with breathing. Then, the mice were returned to raising cages.
7 days after the nasal administration of SITH-1/Adv or empty/Adv, a tail suspension test was carried out for 10 minutes. A period of immobility time was measured with use of TailSuspScanTopScan (CleverSys, Inc.). The tail suspension test was carried out by suspending each mouse by taping the tail 1 cm from the end. […] In the experiment, 30 mice were used in each group.
Then, it was studied whether or not an SSRI (selective serotonin reuptake inhibitor), which is an antidepressant, would restrict an increase in immobility time, the increase being caused by the nasal administration of the SITH-1/Adv. 80 mg/L of Fluoxetine solution as drinking water was given to 6-week-old mice (see Literature 18), and then the mice were raised for 2 weeks. Then, SITH-1/Adv was nasally administered. 7 days after the nasal administration, a tail suspension test was carried out for 10 minutes. […] Statistical significance (* indicates P<0.05, ** indicates P<0.01, and *** indicates P<0.001) was calculated by use of the Mann-Whitney U-test.

Row | Compound | Bcl-2 expression in the brain (Bcl-2) | also measured
1 | CNCCCN1c2ccccc2CCc2ccccc21 [desipramine] | promote Bcl-2 expression in the brain | –
2 | CN(C)CCC=C1c2ccccc2CCc2ccccc21 [amitriptyline] | promote Bcl-2 expression in the brain | –
3 | heparin | – | SITH-1 expression in U373 cells (HHV-6 HST strain): restricted
4 | CCOc1ccccc1OC(c1ccccc1)C1CNCCO1 (stereo not shown) [reboxetine] | promote Bcl-2 expression in the brain | –
5 | CNCCC(Oc1ccc(C(F)(F)F)cc1)c1ccccc1 (stereo not shown) [Fluoxetine] | promotes Bcl-2 expression | immobility time increases in tail suspension test [1]: restricted; Bcl-2 expression in the brain (Bcl-2; listed as fluoxetine): promote Bcl-2 expression in the brain
6 | COc1ccc(C(CN(C)C)C2(O)CCCCC2)cc1 (stereo not shown) [venlafaxine] | promote Bcl-2 expression in the brain | –
7 | CN(C)CCCN1c2ccccc2CCc2ccccc21 [imipramine] | promote Bcl-2 expression in the brain | –
8 | N[C@@H]1C[C@H]1c1ccccc1 (racemic) [tranylcypromine] | promote Bcl-2 expression in the brain | –
